From patent US7091311B2, “Peptides and compounds that bind to a receptor” (SmithKline Beecham Corporation, priority 1996, dated 2006)
pIC50: −log10 of the molar value. Like-named read-outs stand apart in the source and are kept apart here. Values belong to the compound of their own block, whether it stands above or below them. Where a SMILES comes first, the peptide text is derived from it. Where no end group is shown, it is not given here.

Columns and labels:
[1] = target: T1, human TPO-R (Homo sapiens, UniProt P40238); experiment: thrombopoietin dependent cell proliferation assay, TPO-R transfected Ba/F3 cells (MTT); type: cell-based; conditions: for EC50: Table 9, read-out: EC50 (nM) Prolif.
T1 construct: transfected with full length human TPO-R; expressed in transfected cells; host or cells: murine Ba/F3 cells
T1 sequence (P40238 26-635): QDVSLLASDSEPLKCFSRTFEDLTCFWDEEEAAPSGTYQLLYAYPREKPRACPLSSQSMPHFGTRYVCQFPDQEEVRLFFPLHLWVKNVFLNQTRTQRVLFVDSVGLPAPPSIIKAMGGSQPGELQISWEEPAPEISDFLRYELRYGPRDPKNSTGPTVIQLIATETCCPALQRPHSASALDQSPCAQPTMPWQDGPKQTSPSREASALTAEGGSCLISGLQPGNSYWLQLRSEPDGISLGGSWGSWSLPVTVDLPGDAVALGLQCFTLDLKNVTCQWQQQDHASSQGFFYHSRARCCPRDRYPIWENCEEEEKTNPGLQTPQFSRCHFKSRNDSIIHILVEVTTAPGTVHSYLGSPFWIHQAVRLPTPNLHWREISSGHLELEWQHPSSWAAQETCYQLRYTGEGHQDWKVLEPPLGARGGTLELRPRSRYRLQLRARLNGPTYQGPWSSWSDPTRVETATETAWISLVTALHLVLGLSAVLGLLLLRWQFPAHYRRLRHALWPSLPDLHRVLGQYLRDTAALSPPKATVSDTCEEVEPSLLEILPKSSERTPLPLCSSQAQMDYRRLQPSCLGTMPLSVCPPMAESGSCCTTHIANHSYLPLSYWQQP
Description: Bioactivity of the peptides can be measured using a thrombopoietin dependent cell proliferation assay. Murine IL-3 dependent Ba/F3 cells were transfected with full length human TPO-R. In the absence of IL-3 (WEHI-3 conditioned media), these cells are dependent on TPO for proliferation.
The cells were grown in complete RPMI-10 media, containing 10% WEHI-3 conditioned media, then washed twice in PBS, resuspended in media which lacked WEHI-3 conditioned media, and added to wells containing dilutions of peptide or TPO at 2×10^4 cells/well. The cells were incubated for 48 hours at 37° C. in a humidified 5% Co2 atmosphere and metabolic activity was assayed by the reduction of MTT to formazan, with absorbance at 570 nm measured on an ELISA plate reader.

[2] = target: T2, TPO-R (Homo sapiens, UniProt P40238); experiment: competition binding assay: MBP-TPO156 binding to immobilized TPO-R (ELISA)
T2 construct: made in house
T2 sequence (P40238 26-491 limits assumed): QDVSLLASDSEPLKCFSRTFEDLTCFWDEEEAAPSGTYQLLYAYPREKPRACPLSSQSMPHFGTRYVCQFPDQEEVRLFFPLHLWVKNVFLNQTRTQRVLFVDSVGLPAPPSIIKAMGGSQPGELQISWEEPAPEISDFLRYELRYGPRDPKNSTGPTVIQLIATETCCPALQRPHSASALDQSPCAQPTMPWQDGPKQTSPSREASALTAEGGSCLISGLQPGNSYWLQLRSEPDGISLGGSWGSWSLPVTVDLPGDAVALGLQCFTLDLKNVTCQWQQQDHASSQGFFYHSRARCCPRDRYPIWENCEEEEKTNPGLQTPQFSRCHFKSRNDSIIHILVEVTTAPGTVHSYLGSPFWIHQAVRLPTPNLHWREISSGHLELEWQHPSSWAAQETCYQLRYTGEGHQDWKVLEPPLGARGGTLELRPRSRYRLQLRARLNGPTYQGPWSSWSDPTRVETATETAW
Description: A variety of methods can be used to evaluate IC50 values. For example, an equilibrium binding ELISA assay, using either MBP-TPO or lacI-peptide tracer, was used to determine whether the peptides inhibit the binding of TPO to the extracellular domain of the TPO receptor. Typically, the IC50 value were determined using the free peptide. The IC50value can be determined using the free peptide, which optionally can be C-terminally amidated, or can be prepared as an ester or other carboxy amide.
Binding affinities of chemically synthesized peptides for TPO-R were measured in a competition binding assay. The wells of a microtiter plate were coated with 1 mg streptavidin, blocked with PBS/1% BSA, followed by 50 ng of biotinylated anti-receptor immobilizing antibody (Ab179). The wells were then treated with a 1:10 dilution of soluble TPO-R harvest. Various concentrations of peptide or peptide mimetic were mixed with a constant amount of a truncated form of TPO consisting of residues 1–156 fused to the C-terminus of maltose binding protein (MBP-TPO156). The peptide MBP-TPO156 mixtures were added to the TPO-R coated wells, incubated for 2 hours at 4° C. and then washed with PBS. The amount of MBP-TPO156 that was bound at equilibrium was measured by adding a rabbit anti-sera directed against MBP, followed by alkaline phosphatase conjugated goat anti-rabbit IgG. The amount of alkaline phosphatase in each well was then determined using standard methods.
The assay is conducted over a range of peptide concentrations and the results are graphed such that the y axis represents the amount of bound MBP-TPO156 and the x axis represents the concentration of peptide or peptide mimetic.

[3] = Table 7, dimer compounds, read-out: IC50
[4] = Table 3, free peptide, read-out: Affinity (IC50)

Compound: CC[C@H](C)[C@H](NC(=O)[C@H](Cc1c[nH]c2ccccc12)NC(=O)[C@H](CCC(=O)O)NC(=O)[C@H](CCCNC(=N)N)NC(=O)[C@H](CC(C)C)NC(=O)[C@@H](NC(=O)[C@@H]1CCCN1C(=O)CNC(=O)[C@H](CC(=O)O)NC(C)=O)[C@@H](C)O)C(=O)N[C@@H](CO)C(=O)N[C@@H](Cc1ccccc1)C(=O)N[C@@H](CSSC[C@H](NC(=O)[C@H](Cc1ccccc1)NC(=O)[C@H](CO)NC(=O)[C@@H](NC(=O)[C@H](Cc1c[nH]c2ccccc12)NC(=O)[C@H](CCC(=O)O)NC(=O)[C@H](CCCNC(=N)N)NC(=O)[C@H](CC(C)C)NC(=O)[C@@H](NC(=O)[C@@H]1CCCN1C(=O)CNC(=O)[C@H](CC(=O)O)NC(C)=O)[C@@H](C)O)[C@@H](C)CC)C(N)=O)C(N)=O (HELM PEPTIDE1{[ac].D.G.P.T.L.R.E.W.I.S.F.C.[am]}|PEPTIDE2{[ac].D.G.P.T.L.R.E.W.I.S.F.C.[am]}$PEPTIDE1,PEPTIDE2,13:R3-13:R3$$$V2.0; C-terminus assumed)
pIC50 [2, 3]: ≥ 6.30

Compound: CC[C@H](C)[C@H](NC(=O)[C@H](Cc1c[nH]c2ccccc12)NC(=O)[C@H](CCC(=O)O)NC(=O)[C@H](CCCNC(=N)N)NC(=O)[C@H](CC(C)C)NC(=O)[C@@H](NC(C)=O)[C@@H](C)O)C(=O)N[C@@H](CO)C(=O)N[C@@H](Cc1ccccc1)C(=O)N[C@@H](CSSC[C@H](NC(=O)[C@H](Cc1ccccc1)NC(=O)[C@H](CO)NC(=O)[C@@H](NC(=O)[C@H](Cc1c[nH]c2ccccc12)NC(=O)[C@H](CCC(=O)O)NC(=O)[C@H](CCCNC(=N)N)NC(=O)[C@H](CC(C)C)NC(=O)[C@@H](NC(C)=O)[C@@H](C)O)[C@@H](C)CC)C(N)=O)C(N)=O (HELM PEPTIDE1{[ac].T.L.R.E.W.I.S.F.C.[am]}|PEPTIDE2{[ac].T.L.R.E.W.I.S.F.C.[am]}$PEPTIDE1,PEPTIDE2,10:R3-10:R3$$$V2.0; C-terminus assumed)
pIC50 [2, 3]: 3.70

Compound: CC[C@H](C)[C@@H]1NC(=O)[C@H](Cc2c[nH]c3ccccc23)NC(=O)[C@H](CCC(=O)O)NC(=O)[C@H](CCCNC(=N)N)NC(=O)[C@H](CC(C)C)NC(=O)[C@H]([C@@H](C)O)NC(=O)[C@@H]2CCCN2C(=O)CNC(=O)[C@H](CC(=O)O)NC(=O)[C@H](C)NC(=O)CSC[C@@H](C(=O)NCC(N)=O)NC(=O)[C@H](Cc2ccccc2)NC(=O)[C@H](CO)NC1=O [C-term, Gly addition] (HELM PEPTIDE1{[O=C(C[*:3])[*:2]].A.D.G.P.T.L.R.E.W.I.S.F.C.G.[am]}$PEPTIDE1,PEPTIDE1,1:R3-14:R3$$$V2.0; C-terminus assumed)
pIC50 ([2]; Table 6, read-out: IC50): ≥ 6.30

Compound: GNADGPTLRQWLEGRRPKN [G N A D G P T L R Q W L E G R R P K N]
pIC50 [2, 4]: ≥ 6.30

Compound: GPTLRQWL [G P T L R Q W L]
pIC50 [2, 4]: < 3.70

Compound: H-IEGPTLRQWLAARA-NH2
pIC50 ([2]; Table 9, read-out: IC50): ≥ 6.30
EC50 [1]: ≤ 500 nM

The next lines start with the values.

EC50 [1]: ≤ 500 nM
Compound: CC[C@H](C)[C@@H]1NC(=O)[C@@H](N)CSSC[C@@H](C(N)=O)NC(=O)[C@H](C)NC(=O)[C@H](CCCNC(=N)N)NC(=O)[C@H](C)NC(=O)[C@H](C)NC(=O)[C@H](CC(C)C)NC(=O)[C@H](Cc2c[nH]c3ccccc23)NC(=O)[C@H](CCC(N)=O)NC(=O)[C@H](CCCNC(=N)N)NC(=O)[C@H](CC(C)C)NC(=O)[C@H]([C@@H](C)O)NC(=O)[C@@H]2CCCN2C(=O)CNC(=O)[C@H](CCC(=O)O)NC1=O (HELM PEPTIDE1{C.I.E.G.P.T.L.R.Q.W.L.A.A.R.A.C.[am]}$PEPTIDE1,PEPTIDE1,1:R3-16:R3$$$V2.0)

pIC50 [2, 3]: ≥ 6.30
Compound: CC[C@H](C)[C@H](NC(=O)[C@H](Cc1c[nH]c2ccccc12)NC(=O)[C@H](CCC(=O)O)NC(=O)[C@H](CCCNC(=N)N)NC(=O)[C@H](CC(C)C)NC(=O)[C@@H](NC(=O)[C@@H]1CCCN1C(=O)CNC(C)=O)[C@@H](C)O)C(=O)N[C@@H](CO)C(=O)N[C@@H](Cc1ccccc1)C(=O)N[C@@H](CSSC[C@H](NC(=O)[C@H](Cc1ccccc1)NC(=O)[C@H](CO)NC(=O)[C@@H](NC(=O)[C@H](Cc1c[nH]c2ccccc12)NC(=O)[C@H](CCC(=O)O)NC(=O)[C@H](CCCNC(=N)N)NC(=O)[C@H](CC(C)C)NC(=O)[C@@H](NC(=O)[C@@H]1CCCN1C(=O)CNC(C)=O)[C@@H](C)O)[C@@H](C)CC)C(N)=O)C(N)=O (HELM PEPTIDE1{[ac].G.P.T.L.R.E.W.I.S.F.C.[am]}|PEPTIDE2{[ac].G.P.T.L.R.E.W.I.S.F.C.[am]}$PEPTIDE1,PEPTIDE2,12:R3-12:R3$$$V2.0; C-terminus assumed)

pIC50 [2, 3]: ≥ 6.30
Compound: CC[C@H](C)[C@H](NC(=O)[C@H](Cc1c[nH]c2ccccc12)NC(=O)[C@H](CCC(=O)O)NC(=O)[C@H](CCCNC(=N)N)NC(=O)[C@H](CC(C)C)NC(=O)[C@@H](NC(=O)[C@@H]1CCCN1C(C)=O)[C@@H](C)O)C(=O)N[C@@H](CO)C(=O)N[C@@H](Cc1ccccc1)C(=O)N[C@@H](CSSC[C@H](NC(=O)[C@H](Cc1ccccc1)NC(=O)[C@H](CO)NC(=O)[C@@H](NC(=O)[C@H](Cc1c[nH]c2ccccc12)NC(=O)[C@H](CCC(=O)O)NC(=O)[C@H](CCCNC(=N)N)NC(=O)[C@H](CC(C)C)NC(=O)[C@@H](NC(=O)[C@@H]1CCCN1C(C)=O)[C@@H](C)O)[C@@H](C)CC)C(N)=O)C(N)=O (HELM PEPTIDE1{[ac].P.T.L.R.E.W.I.S.F.C.[am]}|PEPTIDE2{[ac].P.T.L.R.E.W.I.S.F.C.[am]}$PEPTIDE1,PEPTIDE2,11:R3-11:R3$$$V2.0; C-terminus assumed)

pIC50 ([2]; Table 6, read-out: IC50): ≥ 6.30
Compound: CC[C@H](C)[C@@H]1NC(=O)[C@H](Cc2c[nH]c3ccccc23)NC(=O)[C@H](CCC(=O)O)NC(=O)[C@H](CCCNC(=N)N)NC(=O)[C@H](CC(C)C)NC(=O)[C@H]([C@@H](C)O)NC(=O)[C@@H]2CCCN2C(=O)CNC(=O)[C@H](CC(=O)O)NC(=O)[C@H](C)NC(=O)CSC[C@@H](C(N)=O)NC(=O)[C@H](C(c2ccccc2)c2ccccc2)NC(=O)[C@H](CO)NC1=O [F - DiPh-Ala] (HELM PEPTIDE1{[O=C(C[*:3])[*:2]].A.D.G.P.T.L.R.E.W.I.S.[O=C([C@@H](N[*:1])C(c1ccccc1)c1ccccc1)[*:2]].C.[am]}$PEPTIDE1,PEPTIDE1,1:R3-14:R3$$$V2.0; C-terminus assumed)

pIC50 ([2]; Table 6, read-out: IC50): ≥ 6.30
Compound: CC[C@@H]1NC(=O)[C@H]([C@@H](C)CC)NC(=O)[C@H](Cc2c[nH]c3ccccc23)NC(=O)[C@H](CCC(=O)O)NC(=O)[C@H](CCCNC(=N)N)NC(=O)[C@H](CC(C)C)NC(=O)[C@H]([C@@H](C)O)NC(=O)[C@@H]2CCCN2C(=O)CNC(=O)[C@H](CC(=O)O)NC(=O)[C@H](C)NC(=O)CSC[C@@H](C(N)=O)NC(=O)[C@H](C(c2ccccc2)c2ccccc2)NC1=O [S,F - Abu, DiPh-Ala] (HELM PEPTIDE1{[O=C(C[*:3])[*:2]].A.D.G.P.T.L.R.E.W.I.[Abu].[O=C([C@@H](N[*:1])C(c1ccccc1)c1ccccc1)[*:2]].C.[am]}$PEPTIDE1,PEPTIDE1,1:R3-14:R3$$$V2.0; C-terminus assumed)

potency of pre-formed streptavidin complex relative to the free peptide ([1]; peptide preincubated with streptavidin at 4:1 molar ratio, FIG. 2): approximately 10 times
Compound: AF 12885 with streptavidin (SA): complexed biotinylated peptide: G G C A D G P T L R E W I S F C G G K (Biotin) preincubated with streptavidin, 4:1 molar ratio

pIC50 [2, 4]: ≥ 6.30
Compound: LAIEGPTLRQWLHGNGRDT [L A I E G P T L R Q W L H G N G R D T]

pIC50 [2, 4]: ≥ 6.30
Compound: SIEGPTLREWLTSRTPHS [S I E G P T L R E W L T S R T P H S]

pIC50 [2, 4]: ≥ 6.30
Compound: TIKGPTLRQWLKSREHTS [T I K G P T L R Q W L K S R E H T S]
